Measurements from PubChem BioAssay AID248 (DTP/NCI, 2004).
Values joined by “and” are separate entries in the source; they are usually repeats but may differ in a detail not shown here. Equal entries are not always repeated. Toxic doses and inconclusive results are not listed. Cut-off read from the data, not from the text of the source: active = T/C of 150% or more; inactive = T/C below 125%.

System: L1210 leukemia ip in BDF1 mice, survival T/C
Assay: NCI In Vivo Anticancer Drug Screen. Data for tumor model L1210 Leukemia (intraperitoneal) in B6D2F1 (BDF1) mice
Details: endpoint: mean survival time, higher = longer survival
Summary of the method: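 In this screen, tumor-bearing mice given compound are compared to those given vehicle, and their survival values are reported as a treated-to-control quotient.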

[1] = dose: 100.0 mg/kg/injection, schedule: Q04DX003 (ip), vehicle: saline with Tween-80
[2] = dose: 400.0 mg/kg/injection, schedule: Q04DX003 (ip), vehicle: saline with Tween-80
[3] = dose: 100.0 mg/kg/injection, schedule: Q01DX001 (ip), vehicle: saline
[4] = dose: 100.0 mg/kg/injection, schedule: Q04DX003 (ip), vehicle: saline
[5] = dose: 200.0 mg/kg/injection, schedule: Q04DX003 (ip), vehicle: saline
[6] = dose: 400.0 mg/kg/injection, schedule: Q04DX003 (ip), vehicle: saline
[7] = dose: 100.0 mg/kg/injection, schedule: Q01DX001 (ip), vehicle: carboxymethylcellulose (CMC)
[8] = dose: 100.0 mg/kg/injection, schedule: Q01DX009 (ip), vehicle: saline with Tween-80
[9] = dose: 200.0 mg/kg/injection, schedule: Q01DX001 (ip), vehicle: carboxymethylcellulose (CMC)
[10] = dose: 200.0 mg/kg/injection, schedule: Q01DX009 (ip), vehicle: saline with Tween-80
[11] = dose: 200.0 mg/kg/injection, schedule: Q04DX003 (ip), vehicle: saline with Tween-80
[12] = dose: 400.0 mg/kg/injection, schedule: Q01DX001 (ip), vehicle: carboxymethylcellulose (CMC)
[13] = dose: 400.0 mg/kg/injection, schedule: Q01DX009 (ip), vehicle: saline with Tween-80
[14] = dose: 100.0 mg/kg/injection, schedule: Q01DX009 (ip), vehicle: Klucel (hydroxypropylcellulose) (HPC)
[15] = dose: 200.0 mg/kg/injection, schedule: Q01DX009 (ip), vehicle: Klucel (hydroxypropylcellulose) (HPC)
[16] = dose: 400.0 mg/kg/injection, schedule: Q01DX009 (ip), vehicle: Klucel (hydroxypropylcellulose) (HPC)
[17] = dose: 25.0 mg/kg/injection, schedule: Q01DX009 (ip), vehicle: Klucel (hydroxypropylcellulose) (HPC)
[18] = dose: 50.0 mg/kg/injection, schedule: Q01DX009 (ip), vehicle: Klucel (hydroxypropylcellulose) (HPC)
[19] = dose: 50.0 mg/kg/injection, schedule: Q01DX009 (ip), vehicle: saline with Tween-80
[20] = dose: 100.0 mg/kg/injection, schedule: Q04DX002 (ip), vehicle: Klucel (hydroxypropylcellulose) (HPC)
[21] = dose: 200.0 mg/kg/injection, schedule: Q04DX002 (ip), vehicle: Klucel (hydroxypropylcellulose) (HPC)
[22] = dose: 400.0 mg/kg/injection, schedule: Q04DX002 (ip), vehicle: Klucel (hydroxypropylcellulose) (HPC)
[23] = dose: 100.0 mg/kg/injection, schedule: Q04DX003 (ip), vehicle: Klucel (hydroxypropylcellulose) (HPC)
[24] = dose: 200.0 mg/kg/injection, schedule: Q04DX003 (ip), vehicle: Klucel (hydroxypropylcellulose) (HPC)
[25] = dose: 400.0 mg/kg/injection, schedule: Q04DX003 (ip), vehicle: Klucel (hydroxypropylcellulose) (HPC)

Measured: T/C

CCOC(=O)c1cc(C(=O)O)[nH]c(=O)c1C#N
inactive: [1] 97 % of control | [2] 95 % of control

CC/C(=C/c1ccc2c(c1)OCO2)[N+](=O)[O-]
inactive: dose: 25.0 mg/kg/injection, schedule: Q01DX001 (ip), vehicle: saline 100 % of control | dose: 50.0 mg/kg/injection, schedule: Q01DX001 (ip), vehicle: saline 100 % of control | [3] 100 % of control

CC(=O)CSC(=S)OC(C)C
inactive: dose: 100.0 mg/kg/injection, schedule: Q04DX002 (ip), vehicle: saline 112 % of control | dose: 200.0 mg/kg/injection, schedule: Q04DX002 (ip), vehicle: saline 94 % of control | dose: 400.0 mg/kg/injection, schedule: Q04DX002 (ip), vehicle: saline 105 % of control

C[Si](C)O[Si](C)C
inactive: [4] 91 % of control | [5] 101 % of control | [6] 101 % of control

Nc1ccc(C(=O)O)c(O)c1
inactive: dose: 37.88 mg/kg/injection, schedule: Q01DX Z (ip), vehicle: carboxymethylcellulose (CMC) 105 % of control | dose: 75.75 mg/kg/injection, schedule: Q01DX Z (ip), vehicle: carboxymethylcellulose (CMC) 96 % of control | [7] 97 % of control | [8] 104 % of control | [1] 96 % of control and 97 % of control | dose: 151.5 mg/kg/injection, schedule: Q01DX Z (ip), vehicle: carboxymethylcellulose (CMC) 96 % of control | [9] 97 % of control | [10] 97 % of control | [11] 95 % of control and 103 % of control | dose: 303.0 mg/kg/injection, schedule: Q01DX Z (ip), vehicle: carboxymethylcellulose (CMC) 95 % of control | [12] 89 % of control | [13] 95 % of control | [2] 95 % of control and 101 % of control

C=C1C(=O)OC2CCCC/C=C\C12 (configuration not stated)
inactive: dose: 50.0 mg/kg/injection, schedule: Q01DX009 (ip), vehicle: saline 95 % of control | dose: 100.0 mg/kg/injection, schedule: Q01DX009 (ip), vehicle: saline 98 % of control | dose: 200.0 mg/kg/injection, schedule: Q01DX009 (ip), vehicle: saline 95 % of control

O=C(Nc1cccc([N+](=O)[O-])c1)c1cccc(C(=O)Nc2cccc([N+](=O)[O-])c2)c1
inactive: [14] 94 % of control | [15] 89 % of control | [16] 89 % of control

Cn1cnc([N+](=O)[O-])c1S(=O)(=O)NCN1CCOCC1
inactive: [17] 117 % of control | [14] 113 % of control | [15] 113 % of control

CCOC(=O)C(O)(NC(=O)N/N=C/c1ccccc1)C(=O)OCC
inactive: [8] 101 % of control | [1] 106 % of control | [10] 92 % of control | [11] 104 % of control | [13] 93 % of control | [2] 101 % of control

c1ccc(C2C(c3ccccc3)N2CCNC2=NCCN2)cc1 (configuration not stated)
inactive: dose: 12.5 mg/kg/injection, schedule: Q01DX009 (ip), vehicle: Klucel (hydroxypropylcellulose) (HPC) 91 % of control | [17] 102 % of control | [18] 91 % of control

N#CCc1ccc(C(=O)O)cc1
inactive: [7] 106 % of control | [9] 92 % of control

CC1CC=CC(N2C(=O)c3ccccc3C2=O)C1 (configuration not stated)
inactive: [9] 91 % of control | [12] 93 % of control

C=CC/C(=C/CCC)CCC
inactive: [19] 95 % of control | [8] 100 % of control | [10] 100 % of control

O=S(=O)(OC1CCCC1Cl)c1ccc(Br)cc1 (configuration not stated)
inactive: [19] 93 % of control | [8] 93 % of control | [10] 86 % of control

O=C(Cc1ccccc1)O/C=C1/CCOC1=O
inactive: [20] 91 % of control | [21] 91 % of control | [22] 94 % of control

NC(=S)N/N=C/c1ccc(Cl)cc1
inactive: [17] 103 % of control | [18] 101 % of control

Clc1ccccc1C(c1ccccc1)(c1ccc2ccccc2c1)n1ccnc1 (configuration not stated)
inactive: [23] 102 % of control | [24] 101 % of control | [25] 101 % of control

COC(=O)c1cc(C)cc(N(c2ccccc2[N+](=O)[O-])S(=O)(=O)c2ccc(C)cc2)c1C
inactive: [7] 96 % of control | [9] 104 % of control | [12] 98 % of control

CCSC(SCC)C(OC(=O)c1ccccc1)C(OC(=O)c1ccccc1)C(COC(=O)c1ccccc1)OC(=O)c1ccccc1 (configuration not stated)
inactive: [7] 102 % of control | [9] 102 % of control | [12] 96 % of control

COc1ccc(S(=O)(=O)F)cc1NC(=O)CCc1ccc(N2C(N)=NC(N)=NC2(C)C)cc1
inactive: dose: 100.0 mg/kg/injection, schedule: Q01DX001 (ip), vehicle: gum acacia 115 % of control | dose: 200.0 mg/kg/injection, schedule: Q01DX001 (ip), vehicle: gum acacia 101 % of control

N#Cc1ccc[n+](CCCl)c1
inactive: dose: 30.0 mg/kg/injection, schedule: Q01DX Z (ip), vehicle: saline 95 % of control

Cc1ccc(N(CCCl)CCCl)cc1NC(=O)c1ccccc1
inactive: dose: 100.0 mg/kg/injection, schedule: Q01DX001 (ip), vehicle: other 102 % of control | dose: 200.0 mg/kg/injection, schedule: Q01DX001 (ip), vehicle: other 102 % of control | dose: 400.0 mg/kg/injection, schedule: Q01DX001 (ip), vehicle: other 109 % of control

c1ccc2[nH]c(SCCSc3nc4ccccc4[nH]3)nc2c1
inactive: [20] 111 % of control | [21] 107 % of control | [22] 92 % of control

Cc1cc(Br)ccc1OCC(=O)O
inactive: [23] 96 % of control | [24] 93 % of control | [25] 98 % of control

CN(C)c1ccc2c(c1)Cc1cc(N3C(=O)C=CC3=O)ccc1-2
inactive: [23] 101 % of control | [24] 101 % of control | [25] 95 % of control

O=S(=O)(NC(CCl)=NC1CCCCC1)c1ccccc1
inactive: [20] 89 % of control | [21] 100 % of control | [22] 104 % of control

Clc1cccc(Cl)c1Br
inactive: [14] 100 % of control | [1] 108 % of control | [15] 100 % of control | [11] 104 % of control | [16] 105 % of control | [2] 98 % of control

CCOC(=O)NS(=O)(=O)c1ccccc1
inactive: [14] 100 % of control | [15] 101 % of control | [16] 87 % of control

O=C1NC(Cc2ccccc2)C(=O)O1 (configuration not stated)
inactive: [4] 100 % of control | [5] 91 % of control | [6] 93 % of control

CCCCSC(=O)C(O)c1ccccc1 (configuration not stated)
inactive: [3] 105 % of control | dose: 200.0 mg/kg/injection, schedule: Q01DX001 (ip), vehicle: saline 104 % of control | dose: 400.0 mg/kg/injection, schedule: Q01DX001 (ip), vehicle: saline 105 % of control

COC(=O)c1ccc(C(F)(F)F)cc1O
inactive: [23] 97 % of control | [24] 100 % of control | [25] 108 % of control
